Experimental data reported in patent publication US5216159A (priority 1991, dated 1993).
Where a name gives a salt, the structure may show the parent alone.

biological target: GABAa receptor; test: GABAa receptor binding assay ([3H]-RO15-1788 [3H-Flumanzenil] displacement, rat cortical tissue); settings: 0.5 nM 3H-RO15-1788, rat cortical tissue, 30 min at 4° C.
Description: The pharmaceutical utility of compounds of this invention are indicated by the following assay for GABAa receptor activity.
Assays are carried out as described in Thomas and Tallman (J. Bio. Chem. 156: 9838-9842, J. Neurosci. 3:433-440, 1983). Rat cortical tissue is dissected and homogenized in 25 volumes (w/v) of 0.05 M Tris HCl buffer (pH 7.4 at 4° C.). The tissue homogenate is centrifuged in the cold (4°) at 20,000×g for 20'. The supernatant is decanted and the pellet is rehomogenized in the same volume of buffer and again centrifuged at 20,000×g. The supernatant is decanted and the pellet is frozen at -20° C. overnight. The pellet is then thawed and rehomogenized in 25 volume (original wt/vol) of buffer and the procedure is carried out twice. The pellet is finally resuspended in 50 volumes (w/vol of 0.05 M Tris HCl buffer (pH 7.4 at […]).
Incubations contain 100 μl of tissue homogenate, 100 μl of radioligand 0.5 nM (^3 H-RO15-1788 [^3 H-Flumanzenil] specific activity 80 Ci/mmol), drug or blocker and buffer to a total volume of 500 μl. Incubations are carried for 30 min at 4° C. then are rapidly filtered through GFB filters to separate free and bound ligand. Filters are washed twice with fresh 0.05 M tris HCl buffer (pH 7.4 at 4° C.) and counted in a liquid scintillation counter. 1.0 μM diazepam is added to some tubes to determine nonspecific binding. Data are collected in triplicate determinations, averaged and % inhibition of total specific binding is calculated. Total Specific Binding=Total-Nonspecific. In some cases, the amounts of unlabeled drugs is varied and total displacement curves of binding are carried out. Data are converted to a form for the calculation of IC50 and Hill Coefficient (nH).

SMILES	IC50 [nM]
CN1C(=O)CCC12CCc1[nH]c3cnc(-c4ccccc4)nc3c1C2 (centres unmarked) [Compound 11, 1-Methyl-2-phenyl-5,6,7,9-tetrahydro-spiro[indolo[3,2-d]-pyrimidine-2',8-pyrrolidin-5'-one]]	50
c1ccc(-c2ncc3[nH]c4c(c3n2)COCC4)cc1 [Compound 26, 2-Phenyl-5,6,7,9-tetrahydro-5H-pyrano[4,3-b]pyrimidino[4,5-d]-pyrrole]	400
COc1ccc(-c2ncc3[nH]c4c(c3n2)CC2(CCCO2)CC4)cc1 (centres unmarked) [Compound 15, 2-(4-Methoxyphenyl)-4,5,5',6',7',9'-hexahydro-spiro[furan-2,8'(3H)-indolo[3,2-d]-pyrimidine]]	50
c1ccc(-c2ncc3[nH]c4c(c3n2)CCCCC4)cc1 [Compound 3, 2-Phenyl-cyclohept(g)-pyrrolo[3,2-d]-5H-pyrimidine]	1000
c1ccc(COC2CCc3[nH]c4cnc(-c5ccccc5)nc4c3C2)cc1 (centres unmarked) [Compound 5, 2-Phenyl-8-benzyloxy-6,7,8,9-tetrahydro-5H-indolo[3,2-d]-pyrimidine]	100
COc1ccc(-c2ncc3[nH]c4c(c3n2)CCC4)cc1 [Compound 9, 2-(4-Methoxyphenyl)-cyclopent(g)-5H-pyrrolo[3,2-d]-pyrimidine]	18
c1ccc(-c2ncc3[nH]c4c(c3n2)CCCC4)cc1 [Compound 1, 2-Phenyl-6,7,8,9-tetrahydro-5H-indolo[3,2-d]-pyrimidine]	100
COc1ccc(-c2ncc3[nH]c4c(c3n2)CCCC4)cc1 [Compound 7, 2-(4-Methoxyphenyl)-6,7,8,9-tetrahydro-5H-indolo[3,2-d]-pyrimidine]	39
c1ccc(CN2CCc3[nH]c4cnc(-c5ccccc5)nc4c3C2)cc1 [Compound 32, 8-Benzyl-2-phenyl-5,6,7,9-tetrahydro-5H-pyrido[4,3-b]-pyrimidino[4,5-d]-pyrrole monohydrochloride]	13
c1csc(-c2ncc3[nH]c4c(c3n2)CCCC4)c1 [Compound 10, 2-(2-Thienyl)-6,7,8,9-tetrahydro-5H-indolo[3,2-d]-pyrimidine]	9
c1ccc(-c2ncc3[nH]c4c(c3n2)CCC4)cc1 [Compound 2, 2-Phenyl-cyclopent(g)-5H-pyrrolo[3,2-d]-pyrimidine]	110
c1ccc(-c2ncc3[nH]c4c(c3n2)CC2(CC4)OCCO2)cc1 [Compound 12, 2'-Phenyl-5',6',7',9'-tetrahydro-spiro[(1,3)dioxolane-2,8'-indolo[3,2-d]-pyrimidine]]	25

tested on: benzodiazepine binding site; test: not given; settings: cited from earlier work

SMILES	blockade of enhancement of benzodiazepine binding by GABA agonists
CN1CCc2cc3c(cc2C1C1OC(=O)c2c1ccc1c2OCO1)OCO3 (single isomer, unassigned; (-)) [(-) bicuculline]	much less active
CN1CCc2cc3c(cc2C1C1OC(=O)c2c1ccc1c2OCO1)OCO3 (single isomer, unassigned; (+)) [(+) bicuculline]	blocked
